Results on 5 molecules are retold here after publication PMC12529881, “Quantitative analysis of inhibitor‐induced assembly disruption in human UDP‐GlcNAc 2‐epimerase using mass photometry” (Protein Science : A Publication of the Protein Society, 2025).

Like-named read-outs stand apart in the source and are kept apart here. Some results are limits rather than exact numbers.

For series [1], the target named is T1, human UDP‐GlcNAc 2‐epimerase (GNE) (Homo sapiens, UniProt Q9Y223).
T1 construct: The MNK subunit connects to the C‐terminus of the GNE subunit; made in house; host or cells: Escherichia coli BL21 (DE3)
T1 sequence (Q9Y223 1-405 limits assumed): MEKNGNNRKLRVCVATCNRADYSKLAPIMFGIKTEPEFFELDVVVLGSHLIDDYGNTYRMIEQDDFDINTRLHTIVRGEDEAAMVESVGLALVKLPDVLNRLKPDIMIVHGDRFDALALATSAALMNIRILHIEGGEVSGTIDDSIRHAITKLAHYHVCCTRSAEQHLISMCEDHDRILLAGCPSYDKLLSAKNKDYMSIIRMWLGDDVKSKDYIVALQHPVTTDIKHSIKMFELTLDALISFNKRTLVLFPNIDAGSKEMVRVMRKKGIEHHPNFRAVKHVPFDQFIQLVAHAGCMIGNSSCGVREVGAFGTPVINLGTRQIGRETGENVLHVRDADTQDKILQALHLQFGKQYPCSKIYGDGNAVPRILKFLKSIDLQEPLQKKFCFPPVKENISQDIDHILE
Kind of series: Mass photometry Schild experiments and OMAM global fit (GNE tetramer inhibition by C15). It is filed as binding. As to the method: (§1) All MP measurements were conducted using a OneMP (Refeyn) instrument equipped with a 525 nm green laser. To minimize background noise, the instrument was placed on an active vibration isolation system (Accurion i4 Series, Park Systems). High‐precision glass coverslips (Paul Marienfeld GmbH & Co. KG, Cat# 0107222) were thoroughly cleaned before use to ensure optimal measurement conditions. Prior to MP measurements, samples were incubated in phosphate buffer (DPBS[−|−], Gibco, Cat# 14190144) and low‐binding tubes for 30 min in a ThermoMixer C (Eppendorf, Cat# 5382000015) at 20°C to allow binding equilibrium to be reached. Immediately before measurement, a 50 nM working solution was prepared. Then, 5 μL of the working solution was added to a 15 μL DPBS (−|−) droplet on the glass coverslip, followed by mixing upon pipetting to ensure proper distribution before measurements began immediately. This approach provided high reproducibility in our results. For the measurements, a regular field of view was used. Data acquisition was performed over a 60‐s detection period with manual focus adjustment. Data were recorded using the software AquireMP (2024 R2, Refeyn) and referenced against a glycinin mass standard in DPBS (−|−). The glycinin standard, derived from defatted soybean flour, forms characteristic trimers (160 kDa), hexamers (320 kDa), nonamers (480 kDa), and dodecamers (640 kDa). Purified and lyophilized glycinin was kindly provided by the group of Dr. Rumiana Dimova (Chen et al., [2020]; Mangiarotti et al., [2025]). Data analysis and graphical visualization were performed using DiscoverMP (2024 R2, Refeyn) and GraphPad Prism 10 (10.1.1, Dotmatics). All experiments were conducted in at least three independent replicates, each performed as technical triplicates.
To assess the binding affinity of inhibitors to GNE, modified Schild experiments were performed using MP. Serial dilutions of UDP‐GlcNAc (800 μM to 100 nM) were titrated against a constant GNE concentration (800 nM) in the presence of varying concentrations of inhibitor C15 (200 μM to 2 nM). Enzyme and substrate concentrations were chosen based on prior titration experiments (Figure 2c,g) to ensure a stable oligomeric equilibrium. Inhibitor concentrations were selected around the IC50 to enable accurate response characterization. Samples were incubated for 30 min at 20°C to ensure equilibration before measurement. EC50 values were obtained from substrate titration curves (tetramer fraction vs. UDP‐GlcNAc concentration), fitted using a Hill‐based function (Equation S3). The resulting EC50 values in the presence of inhibitor (EC50,Inh) were converted into logarithmic concentration ratios (log(CR‐1)) and plotted against the corresponding logarithmic inhibitor concentrations to generate a Schild plot. Data points were then fitted using a linear Schild equation (Equation S5), as described in the Supporting Information S1. Further cooperative factors were obtained from fitting the substrate concentration‐dependent response curves globally with an OMAM model (Equation S6) (Jakubík et al., [2020]).

Series [2] addresses T1, human UDP‐GlcNAc 2‐epimerase (GNE). Kind of series: Mass photometry GNE assembly inhibition (inhibitor titration against 800 nM GNE). It is filed as biochemical. The settings on record: for IC50 / effect on dimeric assembly: 800 nM GNE; for effect on dimeric assembly: absence of UDP‐GlcNAc; for Ki: from IC50 ^S (T) by modified Cheng–Prusoff equation (Equation S4), read-out: K i ^S (T). As to the method:
as §1, with “This approach provided high reproducibility in our results.” left out
Twofold serial dilutions of the inhibitors (500–7.81 μM) were titrated against a constant GNE concentration (800 nM), either in the presence or absence of UDP‐GlcNAc (100 μM). The GNE and substrate concentrations were selected based on titration experiments ensuring binding saturation and the establishment of an assembly equilibrium. Prior to measurements, samples were incubated for 30 min at 20°C to allow equilibrium to be reached. IC50 values were determined from protein fraction vs. inhibitor concentration plots and fitted using a Hill‐based logistic function (Equation S3). Subsequently, K i values for GNE inhibitors were derived from a Cheng–Prusoff equation accounting for allostery (Equation S4), detailed in Supporting Information S1.

For a further series, the system named is GNE. Also noted: method as in Chen et al., 2016. The settings on record: ref Chen et al., 2016; cited from earlier work.
Series [3] deals with T1, human UDP‐GlcNAc 2‐epimerase (GNE). In words: Mass photometry affinity measurements of GNE subunits / substrate titration. It is filed as binding. As to the method: as §1
To determine the intermolecular protein affinities of GNE subunits, their assembly distribution was assessed using MP experiments. In the absence of substrate, serial GNE dilutions (50 μM to 50 nM) were performed to evaluate GNE subunit interactions. In the presence of UDP‐GlcNAc, intermolecular affinity changes were assessed through two titration approaches: First, different concentrations of UDP‐GlcNAc (500–7.81 μM) were titrated against a fixed concentration of GNE (0.8 μM). Second, different concentrations of GNE (0.2–10 μM) were titrated against a fixed concentration of UDP‐GlcNAc (100 μM). KD values were obtained from binding curves (Figure S4), fitted using a Hill‐based logistic model (Equation S1) (Fineberg et al., [2020]). The following dissociation constants were determined: K D ^0 (M:M) and K D ^0 (D:D) in the absence of UDP‐GlcNAc, K D ^S (D:D) and K D ^S (M:M) in the presence of UDP‐GlcNAc.

Series [4] concerns the molecule itself. In words: mass photometry.
Series [5] concerns the molecule itself. In words: mass photometry. The source holds these as a separate data set.
[6] abbreviates: 100 μM UDP‐GlcNAc, DPBS pH 7.4, 20°C, Hill n fixed 1.3, read-out: IC50 ^S (T), GNE tetramer destabilization.
The mark [7] stands for this setting: absence of UDP-GlcNAc, read-out: IC50^0(D), GNE dimer inhibition.
The mark [8] stands for this setting: presence of 100 µM UDP-GlcNAc, read-out: IC50^S(D), GNE dimer inhibition.
[9] abbreviates: substrate titration against 800 nM GNE.

Take `COc1c(Br)cc(Br)cc1/C=C/c1cc(C(F)(F)F)[nH]c(=O)n1` [C15, (E)‐4‐(3,5‐dibromo‐2‐methoxystyryl)‐6‐(trifluoromethyl)pyrimidin‐2(1H)‐one]: in series [1], the “K B (OMAM) fold lower than K B,app (Schild)” value is recorded as ~ 28 fold. For the same molecule, the “operational cooperativity factor β” value in series [1] (OMAM fit) is given as “≈ 0”. Besides, the “operational efficacy τ I (inhibitor)” value in series [1] (OMAM fit) is given as 0.02. Moreover, the “binding cooperativity factor ɑ” value in series [1] (OMAM fit, between C15 and substrate binding) is recorded as 0.02. Moreover, the Kd in series [1] (OMAM global fit (Equation S6), read-out: inhibitor affinity K B) was 0.0252 µM; in series [1] (x‐intercept of linear Schild fit (linear region 0.8–10 μM C15), 800 nM GNE, read-out: apparent affinity K B,app), roughly 0.7 µM. For the same molecule, in series [1] (linear region 0.8–10 μM C15, Equation S5), the Schild slope m stood at 1.1. Further, the IC50 in series [2] (setting [6]) was determined as 3.1 ± 1.2 µM; in series [2] (setting [7]), 21 ± 2.6 µM; in series [2] (setting [8]), 173 ± 100 µM. For the same molecule, the “tetramer inhibition at single concentration” value in series [2] (31.25 μM C15, 800 nM GNE, 100 μM UDP‐GlcNAc) is on record as “full tetramer inhibition”. The “effect on dimeric assembly” value in series [2] is “significantly disrupted the dimeric assembly”. Moreover, the Ki in series [2] (100 μM UDP‐GlcNAc) stood at 0.0826 ± 0.0397 µM.

Turning to `CC(=O)N[C@H]1[C@@H](OP(=O)([O-])OP(=O)([O-])OC[C@H]2O[C@@H](n3ccc(=O)[nH]c3=O)[C@H](O)[C@@H]2O)O[C@H](CO)[C@@H](O)[C@@H]1O.[Na+].[Na+]` [UDP‐GlcNAc, Uridine diphosphate N‐acetyglucosamine disodium salt], the “operational efficacy τ S (substrate)” value in series [1] (OMAM fit) was 17.6. Moreover, the “K M of GNE” value in the series on GNE is 33.1 ± 4.2 µM. Further, the “increase of dimer–dimer affinity by substrate binding” value in series [3] was determined as 98 fold. The Kd is 34.6 ± 3 µM in series [3] (from tetramer curve, substrate titration against 800 nM GNE, Equation S2, read-out: substrate affinity K S); 0.0981 ± 0.0091 µM in series [3] (presence of 100 μM UDP‐GlcNAc, fit Equation S1, read-out: K D ^S (D:D), GNE dimer–dimer interaction); 0.0372 ± 0.0075 µM in series [3] (presence of 100 μM UDP‐GlcNAc, fit Equation S1, read-out: K D ^S (M:M), GNE monomer–monomer interaction); 0.221 ± 0.0272 µM in series [3] (presence of 100 μM UDP‐GlcNAc, mean calculated by law of mass action, read-out: K D ^S Calc.(D:D)); 0.0653 ± 0.0124 µM in series [3] (presence of 100 μM UDP‐GlcNAc, mean calculated by law of mass action, read-out: K D ^S Calc.(M:M)). For the same molecule, the “Hill coefficient n of tetramer fraction” value in series [3] (setting [9]) was found to be 1.3. Further, the “maximal response E max (maximal tetramer fraction)” value in series [3] (setting [9]) was 68.3%.

For the molecule `O=c1nc(/C=C/c2cc([N+](=O)[O-])ccc2Cl)cc(C(F)(F)F)[nH]1` [C13, (E)‐4‐(2‐chloro‐5‐nitrostyryl)‐6‐(trifluoromethyl)pyrimidin‐2(1H)‐one], the figures for the IC50 in series [2] (setting [6]), in series [2] (setting [7]) and in series [2] (setting [8]) were 19.4 ± 4.2 µM, greater than 1000 µM and 472 ± 42.5 µM, respectively. Also, the “effect on dimeric assembly” value in series [2] is recorded as “significantly disrupted the dimeric assembly”. In addition, the Ki in series [2] (100 μM UDP‐GlcNAc) is 0.508 ± 0.182 µM.

B1: GNE (UDP-GlcNAc 2-epimerase), monomer UDP-GlcNAc 2-epimerase domain (protein)
chain: MEKNGNNRKLRVCVATCNRADYSKLAPIMFGIKTEPEFFELDVVVLGSHLIDDYGNTYRMIEQDDFDINTRLHTIVRGEDEAAMVESVGLALVKLPDVLNRLKPDIMIVHGDRFDALALATSAALMNIRILHIEGGEVSGTIDDSIRHAITKLAHYHVCCTRSAEQHLISMCEDHDRILLAGCPSYDKLLSAKNKDYMSIIRMWLGDDVKSKDYIVALQHPVTTDIKHSIKMFELTLDALISFNKRTLVLFPNIDAGSKEMVRVMRKKGIEHHPNFRAVKHVPFDQFIQLVAHAGCMIGNSSCGVREVGAFGTPVINLGTRQIGRETGENVLHVRDADTQDKILQALHLQFGKQYPCSKIYGDGNAVPRILKFLKSIDLQEPLQKKFCFPPVKENISQDIDHILE
Take B1: in “mass photometry [4]”, the Kd amounted to 0.0126 µM.

B2: GNE (UDP-GlcNAc 2-epimerase), dimer UDP-GlcNAc 2-epimerase domain (protein)
chain: MEKNGNNRKLRVCVATCNRADYSKLAPIMFGIKTEPEFFELDVVVLGSHLIDDYGNTYRMIEQDDFDINTRLHTIVRGEDEAAMVESVGLALVKLPDVLNRLKPDIMIVHGDRFDALALATSAALMNIRILHIEGGEVSGTIDDSIRHAITKLAHYHVCCTRSAEQHLISMCEDHDRILLAGCPSYDKLLSAKNKDYMSIIRMWLGDDVKSKDYIVALQHPVTTDIKHSIKMFELTLDALISFNKRTLVLFPNIDAGSKEMVRVMRKKGIEHHPNFRAVKHVPFDQFIQLVAHAGCMIGNSSCGVREVGAFGTPVINLGTRQIGRETGENVLHVRDADTQDKILQALHLQFGKQYPCSKIYGDGNAVPRILKFLKSIDLQEPLQKKFCFPPVKENISQDIDHILE
B2: the Kd in the series “mass photometry [5]” was found to be 9.6 µM.

For orientation: IC50 means the point on the concentration scale where inhibition reaches its midpoint.
